Reference: publication PMC10553834, “Differentiating the roles of Mycobacterium tuberculosis substrate binding proteins, FecB and FecB2, in iron uptake” (PLOS Pathogens, 2023)
Entries after “also recorded” stand apart in the source; their conditions may differ. Where two headings read alike, the source gives them in different places.

Assays:
Mtb FecB (Rv3044) = Mtb FecB (Rv3044) (Mycobacterium tuberculosis, UniProt O53291); assay: biochemical; type: binding
Mtb FecB2 (Rv0265c) = Mtb FecB2 (Rv0265c) (Mycobacterium tuberculosis, UniProt L7N6B2); type: binding; conditions: FecB2-His (with His tag); 100 nM protein, 50 mM Tris-HCl pH 7.4, 150 mM NaCl, emission 335 nm
Mtb FecB2 (Rv0265c), sequence (L7N6B2 39-330 limits assumed): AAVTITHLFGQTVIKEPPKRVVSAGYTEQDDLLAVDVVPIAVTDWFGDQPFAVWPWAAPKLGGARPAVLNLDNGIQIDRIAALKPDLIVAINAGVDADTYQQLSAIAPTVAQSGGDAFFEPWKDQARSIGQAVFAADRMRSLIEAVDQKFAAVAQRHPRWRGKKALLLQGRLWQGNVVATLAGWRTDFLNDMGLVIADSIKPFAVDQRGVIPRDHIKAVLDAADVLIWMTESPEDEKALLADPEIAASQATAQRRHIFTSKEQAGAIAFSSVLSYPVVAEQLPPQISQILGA

Mtb FecB (Rv3044), sequence (O53291 entry or part of it): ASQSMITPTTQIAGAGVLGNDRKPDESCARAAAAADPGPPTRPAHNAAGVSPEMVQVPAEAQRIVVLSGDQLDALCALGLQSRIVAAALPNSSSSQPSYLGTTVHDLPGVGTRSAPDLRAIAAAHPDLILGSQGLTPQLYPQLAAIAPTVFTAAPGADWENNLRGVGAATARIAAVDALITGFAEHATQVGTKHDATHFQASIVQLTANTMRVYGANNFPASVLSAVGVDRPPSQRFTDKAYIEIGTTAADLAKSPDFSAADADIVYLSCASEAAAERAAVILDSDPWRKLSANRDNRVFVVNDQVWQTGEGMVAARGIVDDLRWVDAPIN

Molecule	Fold weaker affinity to FecB compared to Fe-cMB (Mtb FecB (Rv3044))	Kd (Mtb FecB (Rv3044))	Kd (Mtb FecB2 (Rv0265c))	Kd (Mtb FecB (Rv3044); FecB without His tag (tagless), 100 nM protein, 50 mM Tris-HCl pH 7.4, 150 mM NaCl, emission 335 nm)	Kd (Mtb FecB (Rv3044); FecB-His (with His tag, native), 100 nM protein, 50 mM Tris-HCl pH 7.4, 150 mM NaCl, emission 335 nm)	Kd (Mtb FecB (Rv3044); listed as Fe-mycobactin J)
O=C(N[C@H]1COC(=O)[C@@H](NC(=O)c2cccc(O)c2O)COC(=O)[C@@H](NC(=O)c2cccc(O)c2O)COC1=O)c1cccc(O)c1O [ferric-enterobactin]	at least 40 fold	26.1 µM				
carboxymycobactin [apo-cMB]	~4 fold	2.9 ± 0.1 µM				
ferric-carboxymycobactin [Fe-cMB]		0.55 µM	could not be determined; also recorded: too weak to be determined	0.68 µM	0.63 ± 0.12 µM	
ferric-mycobactin J [Fe-MBJ]	~20 fold	~11 µM				11.3 ± 0.1 µM
ferric-pyoverdines	at least 40 fold	> 45 µM				
